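Briefly, cells in 96-well plates were exposed to five compound concentrations for 48 h, and endpoints were estimated by linear interpolation. GI50: concentration for 50% inhibition of growth. TGI is the concentration that stops growth completely.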
Legend:
Assay in all cases: NCI anticancer screen, dose series, 48 h
BT-549 breast = system: BT-549 breast
UACC-62 melanoma = system: UACC-62 melanoma
PC-3 prostate = system: PC-3 prostate
OVCAR-8 ovarian = system: OVCAR-8 ovarian
SF-539 CNS = system: SF-539 CNS
SK-MEL-2 melanoma = system: SK-MEL-2 melanoma
HCT-15 colon = system: HCT-15 colon
KM12 colon = system: KM12 colon
HT29 colon = system: HT29 colon
SF-268 CNS = system: SF-268 CNS
EKVX NSCLC = system: EKVX NSCLC
MDA-MB-231 breast = system: MDA-MB-231 breast
SNB-75 CNS = system: SNB-75 CNS
SNB-19 CNS = system: SNB-19 CNS
HCC-2998 colon = system: HCC-2998 colon
NCI-H23 lung = system: NCI-H23 lung
IGROV1 ovarian = system: IGROV1 ovarian
786-0 renal = system: 786-0 renal
K-562 leukemia = system: K-562 leukemia
A498 renal = system: A498 renal
UACC-257 melanoma = system: UACC-257 melanoma
NCI-H522 lung = system: NCI-H522 lung
HOP-62 NSCLC = system: HOP-62 NSCLC
TK-10 renal = system: TK-10 renal
CCRF-CEM leukemia = system: CCRF-CEM leukemia
OVCAR-3 ovarian = system: OVCAR-3 ovarian
MCF7 breast = system: MCF7 breast
SF-295 CNS = system: SF-295 CNS
MALME-3M melanoma = system: MALME-3M melanoma
SK-MEL-5 melanoma = system: SK-MEL-5 melanoma
NCI/ADR-RES ovarian = system: NCI/ADR-RES ovarian
SK-MEL-28 melanoma = system: SK-MEL-28 melanoma
U251 CNS = system: U251 CNS
OVCAR-4 ovarian = system: OVCAR-4 ovarian
CAKI-1 renal = system: CAKI-1 renal
HOP-92 NSCLC = system: HOP-92 NSCLC
RPMI-8226 leukemia = system: RPMI-8226 leukemia
A549 NSCLC = system: A549 NSCLC
DU-145 prostate = system: DU-145 prostate
NCI-H460 lung = system: NCI-H460 lung
HL-60(TB) leukemia = system: HL-60(TB) leukemia
SW-620 colon = system: SW-620 colon
ACHN renal = system: ACHN renal
LOX IMVI melanoma = system: LOX IMVI melanoma
RXF 393 renal = system: RXF 393 renal
HCT-116 colon = system: HCT-116 colon
M14 melanoma = system: M14 melanoma
OVCAR-5 ovarian = system: OVCAR-5 ovarian
MDA-MB-435 = system: MDA-MB-435
NCI-H226 lung = system: NCI-H226 lung
SK-OV-3 ovarian = system: SK-OV-3 ovarian
T-47D breast = system: T-47D breast
HS 578T breast = system: HS 578T breast
SN12C renal = system: SN12C renal
MOLT-4 leukemia = system: MOLT-4 leukemia
COLO 205 colon = system: COLO 205 colon
UO-31 renal = system: UO-31 renal
SR leukemia = system: SR leukemia

`CN1CCN(Cc2ccc(NC(=O)c3cncc(C#Cc4cnc5[nH]ncc5c4)c3)cc2C(F)(F)F)CC1` was tested, and the GI50 (BT-549 breast) was 3.81 µM, the TGI (BT-549 breast) was 16.7 µM and the GI50 (UACC-62 melanoma) was 1.09 µM. It also gave a TGI (UACC-62 melanoma) of 5.56 µM, a GI50 (PC-3 prostate) of 3.7 µM and a TGI (PC-3 prostate) of 60.9 µM. For the same compound, the GI50 (OVCAR-8 ovarian) was 4.26 µM, the TGI (OVCAR-8 ovarian) was 20.3 µM and the GI50 (SF-539 CNS) was 0.925 µM. The TGI (SF-539 CNS) was 4.99 µM, the GI50 (SK-MEL-2 melanoma) was 0.535 µM and the TGI (SK-MEL-2 melanoma) was 2.78 µM. The GI50 (HCT-15 colon) was 2.97 µM, the TGI (HCT-15 colon) was 13.6 µM and the GI50 (KM12 colon) was 0.107 µM. For the same compound, the TGI (KM12 colon) was 12.1 µM, the GI50 (HT29 colon) was 1.23 µM and the TGI (HT29 colon) was 13.7 µM. The GI50 (SF-268 CNS) was 2.54 µM, the TGI (SF-268 CNS) was 16.8 µM and the GI50 (EKVX NSCLC) was 2.72 µM. The TGI (EKVX NSCLC) was 18 µM, the GI50 (MDA-MB-231 breast) was 1.11 µM and the TGI (MDA-MB-231 breast) was 6.55 µM. The GI50 (SNB-75 CNS) was 3.4 µM, the TGI (SNB-75 CNS) was 18.3 µM and the GI50 (SNB-19 CNS) was 8.72 µM. For the same compound, the TGI (SNB-19 CNS) was 21.4 µM, the GI50 (HCC-2998 colon) was 4.51 µM and the TGI (HCC-2998 colon) was 18.6 µM. It also gave a GI50 (NCI-H23 lung) of 2.28 µM, a TGI (NCI-H23 lung) of 16.6 µM and a GI50 (IGROV1 ovarian) of 0.685 µM. The TGI (IGROV1 ovarian) was 13.1 µM, the GI50 (786-0 renal) was 3.55 µM and the TGI (786-0 renal) was 27 µM. The TGI (K-562 leukemia) was > 100 µM, the GI50 (A498 renal) was 1.96 µM and the TGI (A498 renal) was 15 µM. It also gave a GI50 (UACC-257 melanoma) of 2.86 µM, a TGI (UACC-257 melanoma) of 17 µM and a GI50 (NCI-H522 lung) of 1 µM. For the same compound, the TGI (NCI-H522 lung) was 11.3 µM, the GI50 (HOP-62 NSCLC) was 4.06 µM and the TGI (HOP-62 NSCLC) was 16.6 µM. For the same compound, the GI50 (TK-10 renal) was 3.45 µM, the TGI (TK-10 renal) was 17.9 µM and the GI50 (CCRF-CEM leukemia) was 3.64 µM. For the same compound, the TGI (CCRF-CEM leukemia) was 66.6 µM, the GI50 (OVCAR-3 ovarian) was 3.04 µM and the TGI (OVCAR-3 ovarian) was 16.5 µM. The GI50 (MCF7 breast) was 3.9 µM, the TGI (MCF7 breast) was 18.5 µM and the GI50 (SF-295 CNS) was 3.13 µM. The TGI (SF-295 CNS) was 16.3 µM, the GI50 (MALME-3M melanoma) was 0.422 µM and the TGI (MALME-3M melanoma) was 2.81 µM. The GI50 (SK-MEL-5 melanoma) was 2.71 µM, the TGI (SK-MEL-5 melanoma) was 12.6 µM and the GI50 (NCI/ADR-RES ovarian) was 7.07 µM. It also gave a TGI (NCI/ADR-RES ovarian) of 42.1 µM, a GI50 (SK-MEL-28 melanoma) of 1.7 µM and a TGI (SK-MEL-28 melanoma) of 8.66 µM. It also gave a GI50 (U251 CNS) of 4.36 µM, a TGI (U251 CNS) of 25.4 µM and a GI50 (OVCAR-4 ovarian) of 3.03 µM. For the same compound, the TGI (OVCAR-4 ovarian) was 25.8 µM, the GI50 (CAKI-1 renal) was 0.52 µM and the TGI (CAKI-1 renal) was 10.9 µM. The GI50 (HOP-92 NSCLC) was 1.32 µM, the TGI (HOP-92 NSCLC) was 6.02 µM and the GI50 (RPMI-8226 leukemia) was 4.03 µM. The TGI (RPMI-8226 leukemia) was 50.3 µM, the GI50 (A549 NSCLC) was 4.31 µM and the TGI (A549 NSCLC) was 39.5 µM. For the same compound, the GI50 (DU-145 prostate) was 1.54 µM, the TGI (DU-145 prostate) was 16.4 µM and the GI50 (NCI-H460 lung) was 1.3 µM. It also gave a TGI (NCI-H460 lung) of 13.9 µM, a GI50 (HL-60(TB) leukemia) of 0.695 µM and a TGI (HL-60(TB) leukemia) of 13.2 µM. It also gave a GI50 (SW-620 colon) of 1.65 µM, a TGI (SW-620 colon) of 16.2 µM and a GI50 (ACHN renal) of 0.888 µM. The TGI (ACHN renal) was 10.8 µM, the GI50 (LOX IMVI melanoma) was 0.618 µM and the TGI (LOX IMVI melanoma) was 2.38 µM. The GI50 (RXF 393 renal) was 0.612 µM, the TGI (RXF 393 renal) was 5.68 µM and the GI50 (HCT-116 colon) was 0.737 µM. For the same compound, the TGI (HCT-116 colon) was 12.8 µM, the GI50 (M14 melanoma) was 0.524 µM and the TGI (M14 melanoma) was 6.6 µM. For the same compound, the GI50 (OVCAR-5 ovarian) was 3.24 µM, the TGI (OVCAR-5 ovarian) was 17.4 µM and the GI50 (MDA-MB-435) was 1.22 µM. It also gave a TGI (MDA-MB-435) of 14.5 µM, a GI50 (NCI-H226 lung) of 0.704 µM and a TGI (NCI-H226 lung) of 9.53 µM. The GI50 (SK-OV-3 ovarian) was 1.79 µM, the TGI (SK-OV-3 ovarian) was 13.5 µM and the GI50 (T-47D breast) was 3.2 µM. It also gave a TGI (T-47D breast) of 23 µM, a GI50 (HS 578T breast) of 1.27 µM and a TGI (HS 578T breast) of 13.9 µM. The GI50 (SN12C renal) was 1.82 µM, the TGI (SN12C renal) was 11.4 µM and the GI50 (MOLT-4 leukemia) was 1.81 µM. The TGI (MOLT-4 leukemia) was 22.4 µM, the GI50 (COLO 205 colon) was 1.87 µM and the TGI (COLO 205 colon) was 13.2 µM. For the same compound, the GI50 (UO-31 renal) was 3.23 µM, the TGI (UO-31 renal) was 10.8 µM and the GI50 (SR leukemia) was 0.851 µM. It also gave a TGI (SR leukemia) of 11.4 µM.

Reference: PubChem BioAssay (NCI)
